The values that follow come from the METLIN SMRT retention time set (Domingo-Almenara et al. 2019).

A short description of the series: gradient 5% acetonitrile 3 min, to 50% in 2 min, to 85% in 15 min, held 3 min, 100 µL/min. Conditions: column: Zorbax Extend-C18 2.1 x 50 mm; eluents: water / acetonitrile, 0.1% formic acid. In outline: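 Retention times come from adduct peaks that were picked computationally and then checked by hand. The standards, pure and pooled in mixtures of ~100 molecules, were run on a Zorbax Extend-C18 column (2.1 × 50 mm, 1.8 μm) at 100 μL/min with water and acetonitrile, each with 0.1% formic acid. Detection was by quadrupole time-of-flight mass spectrometry in positive and negative ionization mode, with a dead volume of 40 μL and a dwell volume of 900 μL.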
Compound `COCCNS(=O)(=O)c1cccc(-c2nc(-c3ccc(C)cc3)no2)c1` came in with an RP-LC retention time of 1060 s.

For `O=C(NCCc1cccs1)C1CCN(C(=O)c2ncn3c2COC(c2ccccc2)C3)CC1` (stereo not given), the RP-LC retention time came out at 738 s.

For the compound `O=C(Cn1cccc(-c2nc(-c3ccc(F)cc3)no2)c1=O)NCc1cccs1`, the RP-LC retention time came out at 673 s.

Compound `Cc1ccc(C)c(NC(=O)Cn2nc3cc(-c4ccccc4)nc(C)n3c2=O)c1` yielded an RP-LC retention time of 961 s.

With `CC1CCCCN1c1cc(-n2cnc(C(=O)N3CCCCC3)c2)ncn1` (stereo not given), the RP-LC retention time amounted to 880 s.

Take `Cc1ccc(S(=O)(=O)N2CCC3(CC2)NCCN=C3NCc2ccc(F)cc2)cc1`: the RP-LC retention time was determined as 709 s.

In the case of `COc1ccc(C(=O)N2CC(F)(F)C[C@H]2COc2ccc3c(c2)CCC3)cn1`, the RP-LC retention time was 1150 s.

Take `Cc1[nH]c(C(=O)N2CCCC(C(=O)NCc3cccc(Cl)c3)C2)c(C)c1C(=O)OC(C)C` (stereo not given): the RP-LC retention time worked out at 885 s.

Regarding `CC1(O)C=CC(=O)C=C1`, the RP-LC retention time turned out to be 551 s.

With `CC(Oc1ccccc1)C(=O)N1CCC(c2cc(N)on2)CC1` (stereo not given), the RP-LC retention time came out at 674 s.

`Cc1ccc(-c2nc(CN3CCCC3=O)no2)cc1C` showed an RP-LC retention time of 841 s.

`COc1ccc2[nH]c(=O)c(CCC(=O)NCCN3CCCCCC3)cc2c1`: the RP-LC retention time turned out to be 600 s.

Turning to `Cc1ccc(-c2nc3nc(C)cc(C)n3c2Nc2ccc(Cl)cc2)cc1`, the RP-LC retention time stood at 786 s.

In turn, `CCn1cnc(S(=O)(=O)N2CCC(C(=O)NCc3ccc4c(c3)OCO4)CC2)c1` came in with an RP-LC retention time of 684 s.

In turn, `CCc1ccc(S(=O)(=O)NCCOc2ccc(-c3ccco3)nn2)s1` gave an RP-LC retention time of 804 s.

Regarding `O=C(c1cc(F)ccc1Cl)N1CCN(c2ncccc2-c2nnc(C3CC3)o2)CC1`, the RP-LC retention time stood at 834 s.

For `Cc1nn(C)c(C)c1S(=O)(=O)N1CCC(Cc2nncn2-c2ccccc2)CC1`, the RP-LC retention time was determined as 671 s.

Compound `Cc1nc2cc(-c3noc(Cc4ccc(Br)cc4)n3)ccc2n(C)c1=O` yielded an RP-LC retention time of 1020 s.

Compound `Cc1sc(-c2nnc(C3CC3)o2)cc1NC(=O)Cc1ccccc1F` gave an RP-LC retention time of 944 s.

As for `CC(C)(C)NC[C@H](O)COc1cccc2[nH]c(C#N)cc12`, the RP-LC retention time came out at 663 s.

As for `CC(C)(C)C(=O)N1CCCC1COc1ccc(C(=O)N2CCCC2)cc1` (stereo not given), the RP-LC retention time amounted to 647 s.

`CC(C)n1cnc(S(=O)(=O)N2CCC(C(=O)NCCCc3ccccc3)CC2)c1`: the RP-LC retention time turned out to be 764 s.

In turn, `CN(CC1CCOC1)C(=O)Nc1ccccc1C(F)(F)F` (stereo not given) yielded an RP-LC retention time of 713 s.

Compound `O=c1ccn(-c2ccc(F)cc2)nc1-c1nc(-c2ccccc2F)no1` showed an RP-LC retention time of 838 s.

Compound `COc1ccc(NC(=O)CCc2c(C)nn(-c3cc(N4CCCC4)ncn3)c2C)c(OC)c1` registered an RP-LC retention time of 801 s.

The compound `CCS(=O)(=O)N1CCCc2cc(C(=O)N3CCOCC3)ccc21` had an RP-LC retention time of 679 s.

The compound `O=C1NC2(CCN(C(=O)Nc3cccc(F)c3)CC2)Oc2ccccc21` registered an RP-LC retention time of 743 s.

In turn, `CS(=O)(=O)c1ccc2nc(NC(=O)c3coc(NC(=O)c4cccs4)n3)sc2c1` displayed an RP-LC retention time of 685 s.

Compound `COc1ccc(C(=O)N2CC(=O)Nc3ccc(F)cc3C2c2ccccc2)c(OC)c1` (stereo not given) yielded an RP-LC retention time of 854 s.

Compound `Cc1ccc(S(=O)(=O)N2C(=O)CCC2C(=O)N2CCc3ccccc32)cc1C` (stereo not given) yielded an RP-LC retention time of 1000 s.

Compound `Cc1ccc(C(=O)N2CCCC2c2nc(-c3ccc(F)cc3F)no2)s1` (stereo not given) yielded an RP-LC retention time of 1010 s.

In turn, `Cc1oc2c(c1C(=O)NCc1ccc(F)c(F)c1)C1=NC(C)(C)CN1C=N2` showed an RP-LC retention time of 666 s.

Consider `Fc1cccc(Cn2cc(-c3noc(-c4ccc5c(c4)OCO5)n3)nn2)c1`, for which the RP-LC retention time amounted to 962 s.

Compound `Cc1ccc(F)c(NC(=O)c2nc(C)oc2C)c1` came in with an RP-LC retention time of 1010 s.

With `Cc1ccc(Nc2c(-c3ccc(N(C)C)cc3)nc3ncccn23)c(C)c1`, the RP-LC retention time turned out to be 782 s.

Compound `CC1CCC(NC(=O)Cc2csc3nc(-c4ccccc4)cn23)CC1` (stereo not given) gave an RP-LC retention time of 843 s.

`COCCCNC(=O)CN1C(=O)C2CCCCN2c2ccc(C(=O)N(C)C)cc21` (stereo not given): the RP-LC retention time turned out to be 655 s.

Consider `O=C(CCc1nc(CSc2nnc(-c3ccccc3)o2)no1)Nc1ccc(Br)cc1`, for which the RP-LC retention time came to 967 s.

`O=C(c1cc(Cl)ccc1Cl)N1CCN(CC(O)c2cccs2)CC1` (stereo not given) showed an RP-LC retention time of 581 s.

Compound `CCC(Sc1ccc(NC(=O)c2cccc(F)c2)nn1)C(=O)OC` (stereo not given) gave an RP-LC retention time of 890 s.

`CN(C)CCNC(=O)c1cc2cc(S(=O)(=O)N(C)C)ccc2n1Cc1ccccc1` displayed an RP-LC retention time of 674 s.

On to `Cc1cc2nn(CC(=O)N3CCCC3)c(=O)n2c(Nc2ccc(F)c(C)c2)n1`, for which the RP-LC retention time was determined as 643 s.

`O=C1CCN(C(=O)c2ccco2)CCCC(CO)CCN1` (stereo not given) came in with an RP-LC retention time of 566 s.

As to `Cc1ccc(-c2cn3ccn(-c4ccc(F)c(F)c4)c(=O)c3n2)c(C)c1`, the RP-LC retention time turned out to be 924 s.

For `COC(=O)c1cc(S(=O)(=O)N2CCCC2C(=O)Nc2cccc3ccccc23)cn1C` (stereo not given), the RP-LC retention time is 916 s.

In turn, `Cc1noc2nc(C)n(CC(=O)NCc3ccccc3F)c(=O)c12` registered an RP-LC retention time of 710 s.

For `COCc1cn(C2CN(C(=O)c3ccc(C)s3)C2)nn1`, the RP-LC retention time stood at 649 s.

`CCOc1ccc(C2Cn3nnc(-c4nc(-c5ccsc5)no4)c3CO2)cc1` (stereo not given): the RP-LC retention time was 1150 s.

The compound `Cc1ccc(-c2noc(CN3N=NC4C(=O)N(c5ccc(Br)cc5)C(=O)C43)n2)cc1C` (stereo not given) gave an RP-LC retention time of 1130 s.

`CCN(CC)CCNC(=O)c1nc(-c2oc3ccc(C)cc3c2C)no1` yielded an RP-LC retention time of 695 s.

As for `CC1CCN(c2ccc(-c3noc(CN(C)C4CCCCC4)n3)cn2)CC1`, the RP-LC retention time is 720 s.

`COCCNC(=O)c1coc(NC(=O)c2cnccn2)n1`: the RP-LC retention time was 548 s.

On to `CCc1ccc(NC(=O)C2CCN(S(=O)(=O)c3cn(C)cn3)CC2)cc1`, for which the RP-LC retention time amounted to 734 s.

The compound `Cc1ccc(-c2noc(-c3ccc4c(c3)OCCO4)n2)cc1` displayed an RP-LC retention time of 1250 s.

As to `CCN1c2ccc(C)cc2C(=O)NC12CCN(C(=O)c1ccc(F)c(Cl)c1)CC2`, the RP-LC retention time is 888 s.

Regarding `CCOC(=O)CCCSc1nc2sc3c(c2c(=O)[nH]1)CCC3`, the RP-LC retention time was found to be 870 s.

Regarding `COc1ccc(S(=O)(=O)N2CC3CN(C(=O)c4cccc(F)c4)CC(C2)O3)cc1`, the RP-LC retention time is 794 s.

`CCC1(O)CCOC2(CCN(C(=O)CC3CC3)CC2)C1` (stereo not given) displayed an RP-LC retention time of 627 s.

Regarding `CCn1ccc(C(=O)N2CCCC2c2nc(-c3ccc(F)cc3F)no2)n1` (stereo not given), the RP-LC retention time worked out at 827 s.

In turn, `O=C(Nc1ccc(OC(F)(F)F)cc1)C(=O)Nc1ccccc1[N+](=O)[O-]` gave an RP-LC retention time of 1090 s.

`O=C1NC2(CCN(C(=O)c3ccc4c(c3)OCO4)CC2)N=C1c1cccc(Cl)c1` showed an RP-LC retention time of 835 s.

For `O=S(=O)(NCc1nc(-c2cccc(-c3csc(C4CC4)n3)c2)no1)c1ccccc1`, the RP-LC retention time stood at 1080 s.

Turning to `CCN1C(=O)c2ccccc2Oc2ccc(C(=O)NCc3ccccc3)cc21`, the RP-LC retention time came to 912 s.

As for `COc1cccc(-c2noc(Cn3ccnc3C)n2)c1OC`, the RP-LC retention time is 601 s.

Compound `COc1ccc(CNC(=O)c2sc(-c3cn(C)c4ncccc34)nc2C)cc1` returned an RP-LC retention time of 958 s.

In turn, `CCC(C)NC(=O)c1cc2c(n(-c3ccc(C(F)(F)F)cc3)c1=O)CCCC2=O` (stereo not given) came in with an RP-LC retention time of 946 s.

The compound `Cc1nnc(NC(=O)CNC(=O)c2ccc(=O)[nH]c2)s1` had an RP-LC retention time of 520 s.

`COc1ccc(CNC(=O)C2CCN(C(=O)N3CCOc4ccc(Cl)cc43)CC2)cc1` registered an RP-LC retention time of 846 s.

The compound `Cc1cccc(-c2nc(Cn3nnc(C(=O)NCc4ccc(F)c(Cl)c4)c3C)c(C)o2)c1` had an RP-LC retention time of 1180 s.

In the case of `O=c1c(=O)n(-c2ccccc2)ccn1Cc1nc(-c2cccc(F)c2)no1`, the RP-LC retention time amounted to 805 s.

`O=C(NCc1ccc2c(c1)OCO2)C1CCN(c2cc(N3CCCCC3)ncn2)CC1` gave an RP-LC retention time of 715 s.

`O=C(NC1CCCCC1)C1CCN(S(=O)(=O)c2cc(-c3noc(C4CCC4)n3)cs2)CC1` yielded an RP-LC retention time of 1070 s.

For the compound `CC(NC(=O)c1ccc2c(c1)CCCN2S(C)(=O)=O)c1ccccc1` (stereo not given), the RP-LC retention time amounted to 862 s.

As to `O=C(NCC1CC1)C1CCN(c2ncnc3c2oc2ccccc23)CC1`, the RP-LC retention time amounted to 678 s.

With `CCOC(=O)c1cc(S(=O)(=O)N2CCCC2C(=O)Nc2cccc3c2CCCC3)cn1C` (stereo not given), the RP-LC retention time was 1060 s.
